Assay results taken from patent US11680253B2, “Transposase-mediated imaging of the accessible genome” (The Board of Trustees of the Leland Stanford Junior …, priority 2016, dated 2023).

Key:
human neutrophils = assay: NETosis of PMA-activated primary human neutrophils (ATAC-see / ATAC-seq); type: cell-based
Experimental: Human neutrophils were isolated from healthy donor's blood following as described under a Stanford University IRB-approved protocol^23. In brief, 7 ml of heparinized blood was layered on 7 ml Histopaque 1119 (11191-100ML, Sigma Aldrich) in a 15 ml Falcon tube, and the mixture was spun 20 min at 800× g at room temperature. The interphase (lymphocytes and monocytes) was discarded and the granulocyte-rich layer of Histopaque 1119 (diffuse, red phase above RBC pellet) was collected in a new tube. 5 ml of cells were washed with 10 ml of medium (HBSS+), and spun 10 min at 200× g at room temperature. The cells were resuspended in 3 ml DPBS with 0.5% human serum albumin (101-15-50, Lee BioSolutions), and the cell suspension was layered on 10 ml of a discontinuous Percoll gradient (85% to 65% Percoll) and spun 20 min at 800×g at room temperature. The interphase between 70% and 75% Percoll layers were collected in a new 15 ml tube. The tube was added with DPBS with 0.5% human serum albumin up to 15 ml and spun for 10 min at 200× g at room temperature. The cell pellet was resuspended in RPMI-HEPES (10 mM) at 1.5×10^6 cells per ml for neutrophil activation.
Human neutrophils were stimulated by Phorbol myristate acetate (PMA) as described^23. Briefly, the purified neutrophils were suspended in 3 ml RPMI 1640 with final concentration of 1.5×10^6 per ml in loosen cap 15 ml falcon tube, and incubated in cell culture CO2 incubator (5% CO2, 37° C.) with final concentration of 30 nM PMA for 1 h, 3 h, and 5 h respectively. After 2 h of simulation, protease inhibitor cocktail was added at a 1:200 dilution to both control and simulated tubes. At the respective time points, neutrophils were fixed with 1% formaldehyde for 10 min at room temperature, and fixed neutrophil cells spun down on the glass slide with cytospin 1000 rpm 5 min at room temperature for ATAC-see or immuno-staining.
The PAD4 inhibition was performed as previously described^25.
80% confluent Human HT1080 cells (30-50,000 cells) grown in 8 well chamber slides were fixed with 1% formaldehyde (Sigma, USA) for 10 min and quenched with 0.125 M glycine for 5 min at room temperature. After fixation, slides were put in PBS at 4° C. […] The 50 μl transposase reaction solution was added onto the slide, and the cells on slide were incubated at 37° C. for 30 min. For the imaging and sequencing, slides were mounted using Vectorshield and images were taken with a Zeiss LSM 700. After imaging, the coverslip was removed and cells were lysed with 50 μl of 50 mM Tris-Cl, 1 mM EDTA, 1% SDS, 0.2 M NaCl 5 min on slide at room temperature. The cell lysis was carefully transferred to 1.5 ml eppendorf tube. The glass slide was washed with 50 μl of the same buffer another 3 times and washing solutions were transferred to the same tube carefully. […]

Tn5 = Tn5 (Escherichia coli, UniProt Q46731, E54K/L372P); conditions: 50 mM EDTA, HT1080 cells
Experimental: HT1080 cells and HeLa cells were grown on secureSlip cell culture system (0515073, GRACE BIO-LABS) until 80-90% confluent and fixed with 1% formaldehyde (Sigma-Aldrich) for 10 min at room temperature. GM12878 cells were fixed with 1% formaldehyde (Sigma) 10 min at room temperature and centrifuged on the glass slide with Cytospin, 1000 rpm for 5 min, 30-50,000 cells per slide.
ATAC-see: After fixation, the cells (either growing on slide or centrifuged on glass slide with cytospin) were permeabilized with lysis buffer (10 mM Tris-Cl, pH 7.4, 10 mM NaCl, 3 mM MgCl2, 0.01% Igepal CA-630) for 10 min at room temperature. After the permeabilization, the slides were rinsed in PBS twice, and put in humid chamber box at 37° C. The transposase mixture solution (25 μl 2× TD buffer, final concentration of 100 nM Tn5-ATTO-59ON, adding dH2O up to 50 μl) was added on the slide and incubated for 30 min at 37° C. […] After washing, slides were mounted using Vectashield with DAPI (H-1200, Vector labs) for imaging with Leica SP8 or Zeiss 700 or for additional co-staining with Lamin B1 or mitochondria (see the materials and methods above).

NC(=O)[C@H](CCCN=C(N)CCl)NC(=O)c1ccccc1 [Cl-amidine]
NETosis (human neutrophils; 200 μM Cl-amidine 30 min before PMA stimulation): inhibited | release of free DNA from mononucleosomes (human neutrophils; PAD4i-treated, after 5 hrs of neutrophil activation): fail to release free DNA from mononucleosomes

O=C(O)CN(CCN(CC(=O)O)CC(=O)O)CC(=O)O [EDTA]
ATAC-see signal, % of control (Tn5): 2.69%±0.04

CCCCCCCCCCCCCC(=O)O[C@@H]1[C@@H](C)[C@@]2(O)[C@@H](C=C(CO)C[C@]3(O)C(=O)C(C)=C[C@@H]23)[C@@H]2C(C)(C)[C@]12OC(C)=O [PMA, Phorbol myristate acetate]
neutrophils that have released their chromatin into the extracellular space (human neutrophils; 30 nM PMA, after 3 hrs of stimulation): 49.7% | neutrophils that have released NETs (human neutrophils; 30 nM PMA, after 5 hrs of stimulation): 59.7%
